Legend:
Rattus norvegicus [1] = assay: Anticonvulsant activity in albino rat at 30 mg/kg, ip measured after 1 hrs by MES test; format: functional
Rattus norvegicus [2] = assay: Anticonvulsant activity in PTZ induced rat at 50 mg/kg, sc measured after 2 to 4 mins relative to control; format: functional; conditions: time 2-4 min
Rattus norvegicus [3] = assay: Anticonvulsant activity in rat at 50 mg/kg, ip measured after 1 hrs by MES test relative to control; format: functional
[4] = Binding affinity to AT1 in rabbit aorta; format: tissue-based, Oryctolagus cuniculus
[5] = Inhibition of Lacticaseibacillus casei TS
Thymidylate synthase = Thymidylate synthase (Homo sapiens, UniProt P04818); assay: Inhibition of human TS
Tobacco mosaic virus = assay: Antiviral activity against TMV at 500 microg/ml; format: functional; conditions: dose 500 µg/ml

Thymidylate synthase, sequence (P04818 whole entry): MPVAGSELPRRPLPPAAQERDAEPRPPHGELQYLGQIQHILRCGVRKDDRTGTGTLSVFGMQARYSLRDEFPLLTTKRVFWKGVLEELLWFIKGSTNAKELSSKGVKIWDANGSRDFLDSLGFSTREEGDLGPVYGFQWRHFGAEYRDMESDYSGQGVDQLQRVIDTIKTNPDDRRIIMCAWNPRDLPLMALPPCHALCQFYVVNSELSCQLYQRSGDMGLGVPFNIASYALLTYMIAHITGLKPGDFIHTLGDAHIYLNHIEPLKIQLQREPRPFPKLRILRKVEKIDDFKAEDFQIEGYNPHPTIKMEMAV

| Compound | inhibition in vivo at 30 mg/kg (Rattus norvegicus [1]) [%] | Activity (Rattus norvegicus [2]) [%] | Activity (Rattus norvegicus [3]) [%] | further results |
| --- | --- | --- | --- | --- |
| COc1ccc(C2SCC(=O)N2c2nnc(CNn3c(C)nc4ccc(Br)cc4c3=O)s2)cc1 (stereo unspecified) | 60 |  |  |  |
| Cc1nc2ccc(I)cc2c(=O)n1NCc1nnc(NCC2C(=O)NC(=S)NC2=O)s1 |  | 60 | 60 |  |
| Cc1nc2ccc(Br)cc2c(=O)n1NCc1nnc(N)s1 |  | 40 | 40 |  |
| Cc1nc2ccc(Br)cc2c(=O)n1NCC(=O)NNC(=S)NCC1C(=O)NC(=S)NC1=O |  | 40 | 40 |  |
| CCCCc1nc2ccccc2c(=O)n1Cc1ccc(-c2ccccc2C(=O)O)cc1 |  |  |  | IC50 [4]: 92 nM |
| CCCCC(=O)Nc1ccc2nc(CCCC)n(Cc3ccc(-c4ccccc4-c4nn[nH]n4)cc3)c(=O)c2c1 |  |  |  | IC50 [4]: ≥ 1.3 nM |
| Cc1nc2ccccc2c(=O)n1NCc1nnc(NCC2C(=O)NC(=S)NC2=O)s1 |  | 60 | 60 |  |
| COC(=O)c1cccc(NC(=O)c2ccc(Sc3c(C)ccc4nc(N)[nH]c(=O)c34)cc2)c1 |  |  |  | IC50 [5]: 200 nM; IC50 (Thymidylate synthase): 3 nM |
| Cc1nc2ccccc2c(=O)n1NCC(=O)NNC(=S)NCC1C(=O)NC(=O)NC1=O |  | 40 | 40 |  |
| COc1cc(/C=N/c2nnc(CNn3c(C)nc4ccccc4c3=O)s2)ccc1O | 50 |  |  |  |
| Cc1nc2c(Br)cc(Br)cc2c(=O)n1NCC(=O)NNC(=S)NCC1C(=O)NC(=S)NC1=O |  | 40 | 40 |  |
| Cc1nc2ccccc2c(=O)n1NCc1nnc(/N=C/c2ccc(O)cc2)s1 | 50 |  |  |  |
| Cc1nc2ccc(Br)cc2c(=O)n1NCc1nnc(/N=C/c2ccccc2)s1 | 50 |  |  |  |
| COC(=O)[C@H](Cc1ccccc1)NC(=O)c1ccc(Sc2c(C)ccc3nc(N)[nH]c(=O)c23)cc1 |  |  |  | IC50 [5]: 200 nM; IC50 (Thymidylate synthase): 3 nM |
| Cc1nc2ccc(I)cc2c(=O)n1NCC(=O)NNC(=S)NCC1C(=O)NC(=O)NC1=O |  | 40 | 40 |  |
| Cc1nc2ccc(I)cc2c(=O)n1NCC(=O)NNC(=S)NCC1C(=O)NC(=S)NC1=O |  | 40 | 40 |  |
| CCCCc1nc2ccc(NC(C)=O)cc2c(=O)n1Cc1ccc(-c2ccccc2-c2nn[nH]n2)cc1 |  |  |  | IC50 [4]: ≥ 1.3 nM |
| COc1cccc(C2SCC(=O)N2c2nnc(CNn3c(C)nc4ccc(Br)cc4c3=O)s2)c1 (stereo unspecified) | 60 |  |  |  |
| Cc1nc2ccc(I)cc2c(=O)n1NCc1nnc(N)s1 |  | 40 | 40 |  |
| CCCCc1nc2cc3ccccc3cc2c(=O)n1Cc1ccc(-c2ccccc2C(=O)O)cc1 |  |  |  | IC50 [4]: 10 nM |
| Cc1nc2ccccc2c(=O)n1NCc1nnc(N)s1 |  | 40 | 40 |  |

| Compound | inhibition in vivo at 30 mg/kg (Rattus norvegicus [1]) [%] | Activity (Rattus norvegicus [2]) [%] | Activity (Rattus norvegicus [3]) [%] | further results |
| --- | --- | --- | --- | --- |
| O=C1N=C([O-])NC1(c1ccccc1)c1ccccc1.[Na+] [PHENYTOIN SODIUM] | 80 | 80 | 80 |  |
| CCOC(=O)CNn1c(C)nc2ccccc2c1=O | 20 | 10 | 10 |  |
| Cc1nc2ccccc2c(=O)n1NCC(=O)NNC(N)=S | 30 | 20 | 20 |  |
| Cc1nc2ccc(Br)cc2c(=O)n1NCc1nnc(N2C(=O)CSC2c2ccccc2)s1 (stereo unspecified) | 60 |  |  |  |
| CCOC(=O)CNn1c(C)nc2c(Br)cc(Br)cc2c1=O |  | 10 | 10 |  |
| Cc1nc2ccc(I)cc2c(=O)n1NCc1nnc(NCC2C(=O)NC(=O)NC2=O)s1 |  | 60 | 60 |  |
| CCCCc1nc2cc(OC)c(OC)cc2c(=O)n1Cc1ccc(-c2ccccc2-c2nn[nH]n2)cc1 |  |  |  | IC50 [4]: ≥ 1.3 nM |
| Cc1nc2ccc(Br)cc2c(=O)n1NCc1nnc(/N=C/c2ccc(O)cc2)s1 | 50 |  |  |  |
| COc1cccc(/C=N/c2nnc(CNn3c(C)nc4ccccc4c3=O)s2)c1 | 50 |  |  |  |
| Cc1nc2ccccc2c(=O)n1NCc1nnc(/N=C/c2ccc(N(C)C)cc2)s1 | 50 |  |  |  |
| CCCc1nc2ccc(C)cc2c(=O)n1Cc1ccc(-c2ccccc2-c2nn[nH]n2)cc1 |  |  |  | IC50 [4]: ≥ 1.3 nM |
| Nc1nnc(-c2cccc(Cl)c2Cl)c(N)n1 [LAMOTRIGINE] | 90 |  |  |  |
| Cc1nc2ccc(Br)cc2c(=O)n1NCC(=O)NNC(=S)NCC1C(=O)NC(=O)NC1=O |  | 40 | 40 |  |
| Cc1nc2ccccc2c(=O)n1NCc1nnc(/N=C/c2ccccc2)s1 | 50 |  |  |  |
| CCCCc1nc2cc(C)ccc2c(=O)n1Cc1ccc(-c2ccccc2C(=O)O)cc1 |  |  |  | IC50 [4]: 370 nM |
| COc1cc(C2SCC(=O)N2c2nnc(CNn3c(C)nc4ccc(Br)cc4c3=O)s2)ccc1O (stereo unspecified) | 60 |  |  |  |
| Cc1nc2ccc(Br)cc2c(=O)n1NCc1nnc(NCC2C(=O)NC(=O)NC2=O)s1 |  | 60 | 60 |  |
| CCCCc1nc2ccc(N)cc2c(=O)n1Cc1ccc(-c2ccccc2-c2nn[nH]n2)cc1 |  |  |  | IC50 [4]: ≥ 1.3 nM |
| Cc1nc2c(Br)cc(Br)cc2c(=O)n1NCC(=O)NNC(=S)NCC1C(=O)NC(=O)NC1=O |  | 40 | 40 |  |
| CCCCc1nc2ccccc2c(=O)n1Cc1ccc(-c2ccccc2-c2nn[nH]n2)cc1 |  |  |  | IC50 [4]: ≥ 1.3 nM |
| CCCCc1nc2ccc([N+](=O)[O-])cc2c(=O)n1Cc1ccc(-c2ccccc2-c2nn[nH]n2)cc1 |  |  |  | IC50 [4]: ≥ 1.3 nM |

| Compound | inhibition in vivo at 30 mg/kg (Rattus norvegicus [1]) [%] | Activity (Rattus norvegicus [2]) [%] | Activity (Rattus norvegicus [3]) [%] | further results |
| --- | --- | --- | --- | --- |
| COc1cc(C2SCC(=O)N2c2nnc(CNn3c(C)nc4ccccc4c3=O)s2)ccc1O (stereo unspecified) | 60 |  |  |  |
| Cc1nc2ccccc2c(=O)n1NCc1nnc(N2C(=O)CSC2c2ccc(N(C)C)cc2)s1 (stereo unspecified) | 60 |  |  |  |
| Cc1nc2ccc(Br)cc2c(=O)n1NCC(=O)NNC(N)=S | 30 | 20 | 20 |  |
| COc1ccc(/C=N/c2nnc(CNn3c(C)nc4ccc(Br)cc4c3=O)s2)cc1 | 50 |  |  |  |
| CCCCc1nc2ccc(F)cc2c(=O)n1Cc1ccc(-c2ccccc2-c2nn[nH]n2)cc1 |  |  |  | IC50 [4]: ≥ 1.3 nM |
| Cc1nc2ccccc2c(=O)n1NCc1nnc(N2C(=O)CSC2c2ccc(O)cc2)s1 (stereo unspecified) | 60 |  |  |  |
| Cc1nc2c(Br)cc(Br)cc2c(=O)n1NCc1nnc(NCC2C(=O)NC(=O)NC2=O)s1 |  | 60 | 60 |  |
| COc1cccc(C2SCC(=O)N2c2nnc(CNn3c(C)nc4ccccc4c3=O)s2)c1 (stereo unspecified) | 60 |  |  |  |
| COc1cccc(/C=N/c2nnc(CNn3c(C)nc4ccc(Br)cc4c3=O)s2)c1 | 50 |  |  |  |
| Cc1nc2ccccc2c(=O)n1NCC(=O)NNC(=S)NCC1C(=O)NC(=S)NC1=O |  | 40 | 40 |  |
| Cc1nc2ccccc2c(=O)n1NCc1nnc(N2C(=O)CSC2c2ccccc2)s1 (stereo unspecified) | 60 |  |  |  |
| Cc1nc2c(Br)cc(Br)cc2c(=O)n1NCc1nnc(NCC2C(=O)NC(=S)NC2=O)s1 |  | 60 | 60 |  |
| CCCCc1nc2c(C)cccc2c(=O)n1Cc1ccc(-c2ccccc2C(=O)O)cc1 |  |  |  | IC50 [4]: 370 nM |
| Cc1nc2ccccc2c(=O)n1NCc1nnc(NCC2C(=O)NC(=O)NC2=O)s1 |  | 60 | 60 |  |
| CCCC(CCC)C(=O)[O-].[Na+] [VALPROATE SODIUM] |  | 80 | 80 |  |
| COc1cc(/C=N/c2nnc(CNn3c(C)nc4ccc(Br)cc4c3=O)s2)ccc1O | 50 |  |  |  |
| CCCCc1nc2cc(Cl)ccc2c(=O)n1Cc1ccc(-c2ccccc2-c2nn[nH]n2)cc1 |  |  |  | IC50 [4]: ≥ 1.3 nM |
| CCCCc1nc2ccc(C)cc2c(=O)n1Cc1ccc(-c2ccccc2C(=O)O)cc1 |  |  |  | IC50 [4]: 10 nM |
| CCCCc1nc2ccc(C(F)(F)F)cc2c(=O)n1Cc1ccc(-c2ccccc2-c2nn[nH]n2)cc1 |  |  |  | IC50 [4]: ≥ 1.3 nM |
| CCCCc1nc2cccc(C)c2c(=O)n1Cc1ccc(-c2ccccc2C(=O)O)cc1 |  |  |  | IC50 [4]: 370 nM |
| CCCCc1nc2ccc(OC)cc2c(=O)n1Cc1ccc(-c2ccccc2-c2nn[nH]n2)cc1 |  |  |  | IC50 [4]: ≥ 1.3 nM |

| Compound | inhibition in vivo at 30 mg/kg (Rattus norvegicus [1]) [%] | Activity (Rattus norvegicus [2]) [%] | Activity (Rattus norvegicus [3]) [%] | further results |
| --- | --- | --- | --- | --- |
| CCOC(=O)CNn1c(C)nc2ccc(Br)cc2c1=O | 20 | 10 | 10 |  |
| Cc1nc2ccc(Br)cc2c(=O)n1NCc1nnc(/N=C/c2ccc(N(C)C)cc2)s1 | 50 |  |  |  |
| CS(C)(=O)=O [DIMETHYL SULFONE] |  |  |  | IC50 [4]: 2.6 nM |
| Cc1nc2c(Br)cc(Br)cc2c(=O)n1NCc1nnc(N)s1 |  | 40 | 40 |  |
| Cc1nc2ccc(Br)cc2c(=O)n1NCc1nnc(NCC2C(=O)NC(=S)NC2=O)s1 |  | 60 | 60 |  |
| Cc1nc2c(Br)cc(Br)cc2c(=O)n1NCC(=O)NNC(N)=S |  | 20 | 20 |  |
| CCCCc1nc2ccc(Cl)cc2c(=O)n1Cc1ccc(-c2ccccc2-c2nn[nH]n2)cc1 |  |  |  | IC50 [4]: ≥ 1.3 nM |
| Cc1nc2ccc(Br)cc2c(=O)n1NCc1nnc(N2C(=O)CSC2c2ccc(O)cc2)s1 (stereo unspecified) | 60 |  |  |  |
| CCCCc1nc2ccc(C)cc2c(=O)n1Cc1ccc(-c2ccccc2-c2nn[nH]n2)cc1 |  |  |  | IC50 [4]: ≥ 1.3 nM |
| CCc1nc2ccc(C)cc2c(=O)n1Cc1ccc(-c2ccccc2-c2nn[nH]n2)cc1 |  |  |  | IC50 [4]: ≥ 1.3 nM |
| CCCCCc1nc2ccc(C)cc2c(=O)n1Cc1ccc(-c2ccccc2-c2nn[nH]n2)cc1 |  |  |  | IC50 [4]: ≥ 1.3 nM |
| CCCCc1nc2cccc(F)c2c(=O)n1Cc1ccc(-c2ccccc2-c2nn[nH]n2)cc1 |  |  |  | IC50 [4]: ≥ 1.3 nM |
| Cc1nc2ccc(Br)cc2c(=O)n1/C=C/c1cccc([N+](=O)[O-])c1 |  |  |  | Activity (Tobacco mosaic virus): 54% |
| Cc1nc2ccc(I)cc2c(=O)n1NCC(=O)NNC(N)=S |  | 20 | 20 |  |
| COc1ccc(C2SCC(=O)N2c2nnc(CNn3c(C)nc4ccccc4c3=O)s2)cc1 (stereo unspecified) | 60 |  |  |  |
| Cc1nc2ccc(Br)cc2c(=O)n1/C=C/c1ccc(Cl)cc1Cl |  |  |  | Activity (Tobacco mosaic virus): 54% |
| CCCCc1nc2ccc(I)cc2c(=O)n1Cc1ccc(-c2ccccc2-c2nn[nH]n2)cc1 |  |  |  | IC50 [4]: ≥ 1.3 nM |
| COc1ccc(/C=N/c2nnc(CNn3c(C)nc4ccccc4c3=O)s2)cc1 | 50 |  |  |  |
| O=c1c2ccccc2nc(-c2ccccc2)n1/C=C/c1cccc(Cl)c1 |  |  |  | Activity (Tobacco mosaic virus): 54% |
| CCOC(=O)CNn1c(C)nc2ccc(I)cc2c1=O |  | 10 | 10 |  |
| Cc1nc2ccc(Br)cc2c(=O)n1NCc1nnc(N2C(=O)CSC2c2ccc(N(C)C)cc2)s1 (stereo unspecified) | 60 |  |  |  |
